Reference: patent US20190166843A1, “Pesticidal Active Mixtures Comprising Isoxazoline Compounds I” (BASF SE, priority 2008, published 2019)

What was measured:
[1] = tested on: Green Peach Aphid (Myzus persicae); experiment: Test B.1 Control of green peach aphid through systemic means, artificial diet under membrane, 96-well plates; format: in vivo; settings: 3 days
Description: (§1) Synergism can be described as an interaction where the combined effect of two or more compounds is greater than the sum of the individual effects of each of the compounds. The presence of a synergistic effect in terms of percent control, between two mixing partners (X and Y) can be calculated using the Colby equation (Colby, S. R., 1967, Calculating Synergistic and Antagonistic Responses in Herbicide Combinations, Weeds, 15, 20-22):
(§2) When the observed combined control effect is greater than the expected combined control effect (E), then the combined effect is synergistic.
For evaluating control of green peach aphid (Myzus persicae) through systemic means the test unit consisted of 96-well-microtiter plates containing liquid artificial diet under an artificial membrane.
The compounds or mixtures were formulated using a solution containing 75 wt % water and 25 wt % DMSO. Different concentrations of formulated compounds or mixtures were pipetted into the aphid diet, using a custom built pipetter, at two replications. For experimental mixtures in these tests identical volumes of both mixing partners at the desired concentrations respectively, were mixed together.
After application, 5-8 adult aphids were placed on the artificial membrane inside the microtiter plate wells. The aphids were then allowed to suck on the treated aphid diet and incubated at 23±1° C., 50+5% RH for 3 days. Aphid mortality and fecundity was then visually assessed.

[2] = tested on: Boll Weevil (Anthonomus grandis); experiment: Test B.2 Control of boll weevil, insect diet with eggs, 24-well plates; format: in vivo; settings: 5 days
Description: as §1, §2
For evaluating control of boll weevil (Anthonomus grandis) the test unit consisted of 24-well-microtiter plates containing an insect diet and 20-30 A. grandis eggs. The compounds or mixtures were formulated using a solution containing 75 wt % water and 25 wt % DMSO. Different concentrations of formulated compounds or mixtures were sprayed onto the insect diet at 20 μl, using a custom built micro atomizer, at two replications.
For experimental mixtures in these tests identical volumes of both mixing partners at the desired concentrations respectively, were mixed together.
After application, microtiter plates were incubated at 23±1° C., 50±5% RH for 5 days. Egg and larval mortality was then visually assessed.

[3] = compound II alone at 0.4 ppm (0.4 + 0)
[4] = C.I.240 alone at 0.08 ppm (0 + 0.08)

Q: With `CN1COCN(Cc2cnc(Cl)s2)/C1=N\[N+](=O)[O-]` [Thiamethoxam, thiamethoxam] as the compound, how does the “Average Control %” value [1, 3] read?
A: 25%

Q: Which “Average Control %” value ([2]; compound II alone at 0.016 ppm (0.016 + 0)) does the source give for abamectin here?
A: 50%

Q: With `Cc1cc(C2=NOC(c3cc(Cl)cc(Cl)c3)(C(F)(F)F)C2)ccc1C(=O)NCC(=O)NCC(F)(F)F` (stereo not drawn) [C.I.240] as the compound, how does the “Average Control %” value [2, 4] read?
A: 0%

Q: What about the “Average Control %” value ([2]; C.I.240 alone at 0.4 ppm (0 + 0.4)) of the same compound?
A: 50%

Q: And the “Average Control %” value [1, 4]?
A: 0%

Q: What about the “Average Control %” value ([1]; C.I.240 alone at 2 ppm (0 + 2)) of the same compound?
A: 0%

Q: With `O=[N+]([O-])NC1=NCCN1Cc1ccc(Cl)nc1` [Imidacloprid, imidacloprid] as the compound, how does the “Average Control %” value [1, 3] read?
A: 0%

Q: For `CC1(C)C(C=C(Cl)Cl)C1C(=O)OC(C#N)c1cccc(Oc2ccccc2)c1` (stereo not drawn) [Alpha-Cypermethrin, alpha-cypermethrin], which “Average Control %” value ([2]; compound II alone at 0.08 ppm (0.08 + 0)) is on record?
A: 0%

Q: How did the “Average Control %” value ([2]; compound II alone at 4 ppm (4 + 0)) turn out when `N#CCNC(=O)c1cnccc1C(F)(F)F` [Flonicamid, flonicamid] was run?
A: 0%
